According to patent publication US9199943B2, “2-(poly-substituted aryl)-6-amino-5-halo-4-pyrimidinecarboxylic acids and their use as herbicides” (Dow AgroSciences, LLC., priority 2006, dated 2015):

Assays:
[1] = system: ABUTH = velvetleaf (Abutilon theophrasti); test: General preemergence herbicidal activity, velvetleaf; format: in vivo; conditions: Abutilon theophrasti, pre-emergence, 480 h, pre-emergent, visual score after 20-22 days; for pest or weed control at 140 g/ha: 140 g ai/ha
From the text: (§1) Seeds of the desired test plant species were planted in a soil matrix prepared by mixing a loam soil (43 percent silt, 19 percent clay, and 38 percent sand, with a pH of about 8.1 and an organic matter content of about 1.5 percent) and sand in a 70 to 30 ratio. The soil matrix was contained in plastic pots with a surface area of 113 square centimeters. When required to ensure good germination and healthy plants, a fungicide treatment and/or other chemical or physical treatment was applied. A weighed amount, determined by the highest rate to be tested, of each test compound was placed in a 25 mL glass vial and was dissolved in 6 mL of a 97:3 v/v (volume/volume) mixture of acetone and DMSO to obtain concentrated stock solutions. […] The stock solutions obtained were diluted with 18 mL of a 0.1% v/v aqueous solution of Tween® 20 surfactant to obtain spray solutions containing the highest application rate. Additional application rates were obtained by serial dilution of 12 mL of the high rate solution into a solution containing 3 mL of 97:3 v/v mixture of acetone and DMSO and 9 mL of the 0.1% v/v aqueous solution of Tween® 20 surfactant to obtain 1⁄2×, 1⁄4×, 1⁄8× and 1/16× rates of the high rate. Compound requirements are based upon a 12 mL application volume at a rate of 187 L/ha. Formulated compounds were applied to the plant material with an overhead Mandel track sprayer equipped with a […] nozzles calibrated to deliver 187 L/ha over an application area of 0.503 square meters at a spray height of 18 inches (43 cm) above the soil surface. Control plants were sprayed in the same manner with the solvent blank. The treated pots and control pots were placed in a greenhouse maintained with an approximate 15 hour photoperiod and temperatures of about 23-29° C. during the day and 22-28° C. during the night. Nutrients and water were added on a regular basis and supplemental lighting was provided with overhead metal halide 1000-Watt lamps as necessary. The water was added by top-irrigation. After 20-22 days, the condition of the test plants that germinated and grew as compared with that of the untreated plants that emerged and grew was determined visually and scored on a scale of 0 to 100 percent where 0 corresponds to no injury and 100 corresponds to complete kill or no emergence.

[2] = system: CHEAL = lambsquarter (Chenopodium album); test: General preemergence herbicidal activity, lambsquarter; format: in vivo; conditions: Chenopodium album, pre-emergence, 480 h, pre-emergent, visual score after 20-22 days; for pest or weed control at 140 g/ha: 140 g ai/ha
From the text: as §1

[3] = system: HELAN = sunflower (Helianthus annuus); test: General preemergence herbicidal activity, sunflower; format: in vivo; conditions: Helianthus annuus, pre-emergence, 480 h, pre-emergent, visual score after 20-22 days; for pest or weed control at 140 g/ha: 140 g ai/ha
From the text: as §1

Row | melting point | SMILES | pest or weed control at 280 g/ha ([1]; 280 g ai/ha) | pest or weed control at 280 g/ha ([2]; 280 g ai/ha) | pest or weed control at 280 g/ha ([3]; 280 g ai/ha) | pest or weed control at 140 g/ha [1] | pest or weed control at 140 g/ha [2] | pest or weed control at 140 g/ha [3]
1 | 139 to 141 °C | COC(=O)c1nc(-c2ccc(Cl)c(OCC(F)F)c2F)nc(N)c1Cl [Compound 10, 6-Amino-5-chloro-2-[4-chloro-3-(2,2-difluoroethoxy)-2-fluorophenyl]-pyrimidine-4-carboxylic acid methyl ester] | 80% | 60% | 0% | – | – | –
2 | – | COC(=O)c1nc(-c2c(F)cc(Cl)c(OC)c2F)nc(N)c1Cl [Compound 2, 6-amino-5-chloro-2-(4-chloro-2,6-difluoro-3-methoxy-phenyl)pyrimidine-4-carboxylic acid methyl ester] | – | – | – | 100% | 90% | 20%
3 | – | COC(=O)c1nc(-c2ccc(Cl)c(OC)c2Cl)nc(N)c1Cl [Compound 6, 6-Amino-5-chloro-2-(2,4-dichloro-3-methoxyphenyl)pyrimidine-4-carboxylic acid methyl ester] | – | – | – | 60% | 100% | 90%
4 | 155 to 157 °C | COC(=O)c1nc(-c2ccc(Cl)c(C(F)F)c2F)nc(N)c1Cl [Compound 7, 6-Amino-5-chloro-2-(4-chloro-3-difluoromethyl-2-fluorophenyl)pyrimidine-4-carboxylic acid methyl ester] | – | – | – | 75% | 70% | 90%
5 | 143 to 144 °C | COC(=O)c1nc(-c2ccc(Cl)c(N(C)C)c2F)nc(N)c1Cl [Compound 8, 6-Amino-5-chloro-2-(4-chloro-3-dimethylamino-2-fluorophenyl)pyrimidine-4-carboxylic acid methyl ester] | – | – | – | – | – | –
